In patent publication US20220061324A1, “PESTICIDALLY ACTIVE HETEROCYCLIC DERIVATIVES WITH SULFUR CONTAINING SUBSTITUENTS” (SYNGENTA CROP PROTECTION AG, priority 2018, published 2022):
Read-outs that look alike come from different tables or passages of the source.

How the values were obtained:
Format in all cases: in vivo
[1] = tested on: Euschistus heros (Neotropical Brown Stink Bug); assay: Activity against Euschistus heros (neotropical brown stink bug), soybean leaves sprayed; settings: 120 h, read-out: effect in at least one of the two categories (mortality or growth inhibition); for percent effect (mortality or growth inhibition) at 200 ppm: application rate 200 ppm, N2 nymphs, 5 days after infestation
Protocol: Example B2: Activity Against Euschistus heros (Neotropical Brown Stink Bug)
Soybean leaves on agar in 24-well microtiter plates were sprayed with aqueous test solutions prepared from 10,000 ppm DMSO stock solutions. After drying the leaves were infested with N2 nymphs. The samples were assessed for mortality and growth inhibition in comparison to untreated samples 5 days after infestation.

[2] = tested on: Plutella xylostella (Diamond Back Moth); assay: Activity against Plutella xylostella (diamond back moth), artificial diet; settings: 192 h, read-out: effect in at least one of the two categories (mortality or growth inhibition); for percent effect (mortality or growth inhibition) at 200 ppm: application rate 200 ppm, eggs, 8 days after infestation
Protocol: Example B3: Activity Against Plutella xylostella (Diamond Back Moth)
24-well microtiter plates with artificial diet were treated with aqueous test solutions prepared from 10,000 ppm DMSO stock solutions by pipetting. After drying, Plutella eggs were pipetted through a plastic stencil onto a gel blotting paper and the plate was closed with it. The samples were assessed for mortality and growth inhibition in comparison to untreated samples 8 days after infestation.

[3] = tested on: Myzus persicae (Green Peach Aphid); assay: Activity against Myzus persicae (green peach aphid), feeding/contact activity; settings: 144 h
Protocol: Example B4: Activity Against Myzus persicae (Green Peach Aphid) Feeding/Contact Activity
Sunflower leaf discs were placed onto agar in a 24-well microtiter plate and sprayed with aqueous test solutions prepared from 10,000 ppm DMSO stock solutions. After drying, the leaf discs were infested with an aphid population of mixed ages. The samples were assessed for mortality 6 days after infestation.

[4] = tested on: Spodoptera littoralis (Egyptian Cotton Leaf Worm); assay: Activity against Spodoptera littoralis (Egyptian cotton leaf worm), cotton leaf discs; settings: foliar, 72 h, read-out: control (mortality, anti-feedant effect or growth inhibition)
Protocol: Example B5: Activity Against Spodoptera littoralis (Egyptian Cotton Leaf Worm)
Cotton leaf discs were placed onto agar in 24-well microtiter plates and sprayed with aqueous test solutions prepared from 10,000 ppm DMSO stock solutions. After drying the leaf discs were infested with five L1 larvae. The samples were assessed for mortality, anti-feeding effect, and growth inhibition in comparison to untreated samples 3 days after infestation. Control of Spodoptera littoralis by a test sample is given when at least one of the categories mortality, anti-feedant effect, and growth inhibition is higher than the untreated sample.

[5] = tested on: Diabrotica balteata (Corn Root Worm); assay: Activity against Diabrotica balteata (corn root worm), maize sprouts sprayed; settings: 96 h, read-out: effect in at least one of the two categories (mortality or growth inhibition); for percent effect (mortality or growth inhibition) at 200 ppm: application rate 200 ppm, L2 larvae, 4 days after infestation
Protocol: Example B1: Activity Against Diabrotica balteata (Corn Root Worm)
Maize sprouts placed onto an agar layer in 24-well microtiter plates were treated with aqueous test solutions prepared from 10,000 ppm DMSO stock solutions by spraying. After drying, the plates were infested with L2 larvae (6 to 10 per well). The samples were assessed for mortality and growth inhibition in comparison to untreated samples 4 days after infestation.

[6] = tested on: Frankliniella occidentalis (Western Flower Thrips); assay: Activity against Frankliniella occidentalis (western flower thrips), sunflower leaf discs; settings: foliar, 168 h, application rate 200 ppm, mixed ages, 7 days after infestation
Protocol: Example B7: Activity Against Frankliniella occidentalis (Western Flower Thrips)
Sunflower leaf discs were placed on agar in 24-well microtiter plates and sprayed with aqueous test solutions prepared from 10,000 DMSO stock solutions. After drying the leaf discs were infested with a Frankliniella population of mixed ages. The samples were assessed for mortality 7 days after infestation.

[7] = application rate 200 ppm, feeding/contact, mixed ages, 6 days after infestation, read-out: mortality
[8] = application rate 200 ppm, L1 larvae, 3 days after infestation

CCS(=O)(=O)c1cc(N=S(C)(C)=O)cnc1-c1ncc2c(OCC(F)(F)C(F)(F)F)cccn12 [Compound P45, [5-ethylsulfonyl-6-[8-(2,2,3,3,3-penta-fluoropropoxy)imidazo [1,5-a]pyridin-3-yl]-3-pyridyl]imino-dimethyl-oxo-λ^6-sulfane]
≥ 80%: percent effect (mortality or growth inhibition) at 200 ppm [1] | percent effect (mortality or growth inhibition) at 200 ppm [2] | mortality at 200 ppm [3, 7]

CCS(=O)(=O)c1cc(C2CC2)cnc1-c1ncc2c(OCC(F)(F)C(F)(F)F)nccn12 [Compound P21, 3-(5-cyclopropyl-3-ethylsulfonyl-2-pyridyl)-8-(2,2,3,3,3-penta-fluoropropoxy)imidazo [1,5-a]pyrazine]
≥ 80%: percent effect (mortality or growth inhibition) at 200 ppm [1] | percent control (mortality, anti-feedant effect or growth inhibition) at 200 ppm [4, 8] | percent effect (mortality or growth inhibition) at 200 ppm [5] | percent effect (mortality or growth inhibition) at 200 ppm [2] | mortality at 200 ppm [3, 7]

CCS(=O)(=O)c1ccc(NC)nc1-c1ncc2c(OCC(F)(F)C(F)(F)F)nccn12 [Compound P10, 5-ethylsulfonyl-N-methyl-6-[8-(2,2,3,3,3-penta-fluoropropoxy)imidazo [1,5-a]pyrazin-3-yl]pyri-din-2-amine]
≥ 80%: percent effect (mortality or growth inhibition) at 200 ppm [1] | percent control (mortality, anti-feedant effect or growth inhibition) at 200 ppm [4, 8] | percent effect (mortality or growth inhibition) at 200 ppm [5] | percent effect (mortality or growth inhibition) at 200 ppm [2] | mortality at 200 ppm [3, 7]

CCS(=O)(=O)c1cccnc1-c1ncc2c(OCC(F)(F)C(F)(F)F)nccn12 [Compound P8, 3-(3-ethylsulfonyl-2-pyridyl)-8-(2,2,3,3,3-pentafluoropropoxy)imi-dazo[1,5-a]pyrazine]
≥ 80%: percent control (mortality or growth inhibition) at 200 ppm [1] | percent control (mortality, anti-feedant effect or growth inhibition) at 200 ppm [4] | percent control (mortality or growth inhibition) at 200 ppm [5] | percent control (mortality or growth inhibition) at 200 ppm [2] | mortality at 200 ppm [3]

CCS(=O)(=O)c1cc(Oc2ccccn2)cnc1-c1ncc2c(OCC(F)(F)C(F)(F)F)nccn12 [Compound P19, 3-[3-ethylsulfonyl-5-(2-pyridyloxy)-2-pyridyl]-8-(2,2,3,3,3-penta-fluoropropoxy)imidazo [1,5-a]pyrazine]
≥ 80%: percent effect (mortality or growth inhibition) at 200 ppm [1] | percent control (mortality, anti-feedant effect or growth inhibition) at 200 ppm [4, 8] | percent effect (mortality or growth inhibition) at 200 ppm [5] | percent effect (mortality or growth inhibition) at 200 ppm [2] | mortality at 200 ppm [3, 7]

CCS(=O)(=O)c1cc(N(C)C(C)=O)cnc1-c1ncc2c(OCC(F)(F)C(F)(F)F)cccn12 [Compound P39, N-[5-ethylsulfonyl-6-[8-(2,2,3,3,3-penta-fluoropropoxy)imidazo [1,5-a]pyridin-3-yl]-3-pyridyl]-N-methyl-acetamide]
≥ 80%: percent effect (mortality or growth inhibition) at 200 ppm [1] | percent effect (mortality or growth inhibition) at 200 ppm [2] | mortality at 200 ppm [3, 7]

CCS(=O)(=O)c1ccc(-c2ncccn2)nc1-c1ncc2c(OCC(F)(F)C(F)(F)F)nccn12 [Compound P25, 3-(3-ethylsulfonyl-6-pyrimidin-2-yl-2-pyridyl)-8-(2,2,3,3,3-penta-fluoropropoxy)imidazo [1,5-a]pyrazine]
≥ 80%: percent effect (mortality or growth inhibition) at 200 ppm [1] | percent control (mortality, anti-feedant effect or growth inhibition) at 200 ppm [4, 8] | percent effect (mortality or growth inhibition) at 200 ppm [5] | percent effect (mortality or growth inhibition) at 200 ppm [2] | mortality at 200 ppm [3, 7]

CCSc1cc(OC(C)(C)C#N)cnc1-c1ncc2c(OCC(F)(F)C(F)(F)F)nccn12 [Compound P50, 2-[[5-ethylsulfanyl-6-[8-(2,2,3,3,3-penta-fluoropropoxy)imidazo [1,5-a]pyrazin-3-yl]-3-pyridyl]oxy]-2-methyl-propanenitrile]
≥ 80%: percent effect (mortality or growth inhibition) at 200 ppm [1] | percent control (mortality, anti-feedant effect or growth inhibition) at 200 ppm [4, 8] | percent effect (mortality or growth inhibition) at 200 ppm [5] | percent effect (mortality or growth inhibition) at 200 ppm [2]

CCS(=O)(=O)c1cc(Oc2ccccn2)cnc1-c1ncc2c(OCC(F)(F)C(F)(F)F)cccn12 [Compound P36, 3-[3-ethylsulfonyl-5-(2-pyridyloxy)-2-pyridyl]-8-(2,2,3,3,3-penta-fluoropropoxy)imidazo [1,5-a]pyridine]
≥ 80%: percent effect (mortality or growth inhibition) at 200 ppm [1] | percent effect (mortality or growth inhibition) at 200 ppm [5] | percent effect (mortality or growth inhibition) at 200 ppm [2] | mortality at 200 ppm [3, 7]

CCS(=O)(=O)c1ccc(N(C)C(C)=O)nc1-c1ncc2c(OCC(F)(F)C(F)(F)F)nccn12 [Compound P11, N-[5-ethylsulfonyl-6-[8-(2,2,3,3,3-penta-fluoropropoxy)imidazo [1,5-a]pyrazin-3-yl]-2-pyridyl]-N-methyl-acetamide]
≥ 80%: percent effect (mortality or growth inhibition) at 200 ppm [1] | mortality at 200 ppm [6] | percent control (mortality, anti-feedant effect or growth inhibition) at 200 ppm [4, 8] | percent effect (mortality or growth inhibition) at 200 ppm [5] | percent effect (mortality or growth inhibition) at 200 ppm [2] | mortality at 200 ppm [3, 7]

CCS(=O)(=O)c1cc(OC(C)(C)C#N)cnc1-c1ncc2c(OCC(F)(F)C(F)(F)F)cccn12 [Compound P47, 2-[[5-ethylsulfonyl-6-[8-(2,2,3,3,3-penta-fluoropropoxy)imidazo [1,5-a]pyridin-3-yl]-3-pyridyl]oxy]-2-methyl-propanenitrile]
≥ 80%: percent effect (mortality or growth inhibition) at 200 ppm [1] | percent effect (mortality or growth inhibition) at 200 ppm [5] | percent effect (mortality or growth inhibition) at 200 ppm [2] | mortality at 200 ppm [3, 7]

CCSc1cc(N=S(C)(C)=O)cnc1-c1ncc2c(OCC(F)(F)C(F)(F)F)nccn12 [Compound P17, [5-ethylsulfanyl-6-[8-(2,2,3,3,3-penta-fluoropropoxy)imidazo [1,5-a]pyrazin-3-yl]-3-pyridyl]imino-dimethyl-oxo-λ^6-sulfane]
≥ 80%: percent effect (mortality or growth inhibition) at 200 ppm [1] | mortality at 200 ppm [6] | percent control (mortality, anti-feedant effect or growth inhibition) at 200 ppm [4, 8] | percent effect (mortality or growth inhibition) at 200 ppm [5] | percent effect (mortality or growth inhibition) at 200 ppm [2]

CCS(=O)(=O)c1cc(C2(C#N)CC2)cnc1-c1ncc2c(OCC(F)(F)C(F)(F)F)nccn12 [Compound P15, 1-[5-ethylsulfonyl-6-[8-(2,2,3,3,3-penta-fluoropropoxy)imidazo [1,5-a]pyrazin-3-yl]-3-pyridyl]cyclopropane-carbonitrile]
≥ 80%: percent effect (mortality or growth inhibition) at 200 ppm [1] | percent control (mortality, anti-feedant effect or growth inhibition) at 200 ppm [4, 8] | percent effect (mortality or growth inhibition) at 200 ppm [5] | percent effect (mortality or growth inhibition) at 200 ppm [2] | mortality at 200 ppm [3, 7]

CCS(=O)(=O)c1cc(N=S(C)(C)=O)cnc1-c1ncc2c(OCC(F)(F)C(F)(F)F)nccn12 [Compound P18, [5-ethylsulfonyl-6-[8-(2,2,3,3,3-penta-fluoropropoxy)imidazo [1,5-a]pyrazin-3-yl]-3-pyridyl]imino-dimethyl-oxo-λ^6-sulfane]
≥ 80%: percent effect (mortality or growth inhibition) at 200 ppm [1] | mortality at 200 ppm [6] | percent control (mortality, anti-feedant effect or growth inhibition) at 200 ppm [4, 8] | percent effect (mortality or growth inhibition) at 200 ppm [5] | percent effect (mortality or growth inhibition) at 200 ppm [2] | mortality at 200 ppm [3, 7]

CCS(=O)(=O)c1cc(C2(C#N)CC2)cnc1-c1ncc2c(OCC(F)(F)C(F)(F)F)cccn12 [Compound P35, 1-[5-ethylsulfonyl-6-[8-(2,2,3,3,3-penta-fluoropropoxy)imidazo [1,5-a]pyridin-3-yl]-3-pyridyl]cyclopropane-carbonitrile]
≥ 80%: percent effect (mortality or growth inhibition) at 200 ppm [1] | percent control (mortality, anti-feedant effect or growth inhibition) at 200 ppm [4, 8] | percent effect (mortality or growth inhibition) at 200 ppm [5] | percent effect (mortality or growth inhibition) at 200 ppm [2]
